Results as given in patent US10765674B2, “Prevention of HIV-infection” (Janssen Sciences Ireland Unlimited Company, priority 2005, dated 2020).
Where two headings read alike, the source gives them in different places.

Experiment: Plasma kinetics of TMC278 in beagle dogs after single intramuscular administration
Format: in vivo
Conditions: single IM 2.5 mg/kg, aqueous 30% DMA/50% PEG400 solution; for half-life / Cmax / Tmax / AUC(0-t): im; for AUC(0-t): read-out: AUC0-312 h; for concentration at 0 h: 0 h (predose); for concentration at 0.5 h: 0.5 h after dose; for concentration at 1 h: 1 h after dose; for concentration at 2 h: 2 h after dose; for concentration at 4 h: 4 h after dose; for concentration at 8 h: 8 h after dose; for concentration at 24 h: 24 h after dose; for concentration at 32 h: 32 h after dose; for concentration at 48 h: 48 h after dose; for concentration at 72 h: 72 h after dose; for concentration at 96 h: 96 h after dose; for concentration at 144 h: 144 h after dose; for concentration at 192 h: 192 h after dose; for concentration at 240 h: 240 h after dose; for concentration at 312 h: 312 h after dose; for concentration at 36 day: day 36; for concentration at 50 day: day 50; for concentration at 64 day: day 64; for concentration at 78 day: day 78; for concentration at 92 day: day 92; for concentration at 106 day: day 106; for concentration at 120 day: day 120; for concentration at 134 day: day 134; for concentration at 148 day: day 148
Procedure: The present study was performed in order to study the plasma kinetics and the absolute bioavailability of TMC278 in beagle dogs after single intramuscular administration (IM) of an aqueous 30% dimethylacetamide (DMA)/50% polyethylene glycol 400 (PEG400) solution of TMC278 at 2.5 mg/kg. The dogs were dosed IM.
Two male beagle dogs (dog No. 16924 and 16854), approximately 3 years old and weighing between 11 and 12 kg at the start of the experimental phase, were used in the present experiment. The dogs were dosed intramuscularly at 0.1 ml/kg body weight by injecting the formulation in the left (dog No. 16924) or right (dog No. 16854) m. biceps femoris.
One day before dose administration, TMC278 was formulated in an aqueous 30% (w/v) DMA/50% (w/v) PEG400 solution at 25 mg/ml. The ingredients of the solution were: TMC278, DMA 30% (w/v), PEG 400 50% (w/v) and pyrogenic free water. The content of TMC278 in the formulation was checked using LC. The concentration of TMC278 in the formulation was 25 mg/ml.
Blood samples (4 ml on EDTA) were taken from a jugular vein from the dogs at 0 (=predose), 0.5, 1, 2, 4, 8, 24, 32, 48, 72, 96, 144, 192, 240 and 312 h after dose administration. After sampling, the blood samples were immediately placed on melting ice and protected from light. Blood samples were centrifuged at approximately 1900×g for 10 minutes at 5° C. to allow plasma separation. Immediately after separation, plasma samples were protected from light, placed on melting ice and stored at ≤−18° C. until analysis. Frozen plasma samples were transferred to the Bioanalytical Department. Since TMC278 was still detectable in the plasma samples at 312 h post-dose, additional blood samples of both dogs were collected on the days 36, 50, 64, 78, 92, 106, 120, 134 and 148. These samples were analogously processed and analysed.
The concentration of TMC278 in dog plasma was determined by a qualified research LC-MS/MS method after solid phase extraction (SPE). Plasma concentrations of TMC278 were determined after proper sample clean up. The samples (0.1 ml aliquots of plasma) were extracted using a solid phase extraction method (Bond Elut Certify solid phase columns, 130 mg, SPE, Varian). The SPE column was conditioned with 3 ml methanol, 3 ml water and 1 ml acetic acid 1 M.
After addition of 3 ml acetic acid to 0.1 ml aliquots of plasma, the samples were extracted on the column followed by washing the column with 1 ml water, 1 ml acetic acid 1 M and 3 ml methanol. The column was eluted with 3 ml methanol/NH4OH 25% (98:2, v/v). The extract was evaporated to dryness and reconstituted in 150 μl of ammonium formate 0.01 M (adjusted to pH 4 with formic acid)/methanol (50/50). 20 μl-aliquots were injected onto a reversed phase LC-column (100×4.6 mm ID, packed with 3 μm Hypersil C18 BDS) with a flow of 800 μl/min. The elution mixture was ammonium formate 0.01 M (adjusted to pH 4 with formic acid)/methanol (40:60, v/v). The flow-rate to the mass spectrometer was about 100 μl/min after splitting. LC-MS/MS analysis was carried out on an API-3000 system (Applied Biosystems), which was coupled to an HPLC-system.
Individual plasma concentration-time profiles were subjected to a non-compartmental pharmacokinetic analysis. Peak plasma concentrations (Cmax) and corresponding peak times (Tmax) were determined. The AUC from time 0 to time t (AUC0-t, where t is the time point associated with the last measurable concentration above the limit of quantification) was calculated by means of the linear/log trapezoidal rule: i.e. linear trapezoidal rule up to Tmax: AUC0-Tmax=Σ[(ti+1−ti). (Ci+Ci+1)/2], and log trapezoidal for the remainder of the curve: AUCTmax-t=Σ[(ti+1−ti). (Ci−Ci+1)/ln(Ci/Ci+1)], Ci and Ci+1 being the plasma concentrations at times ti and ti+1, respectively. […]

[1] = male, beagle, dog, plasma, 2.5 mg/kg, dog No. 16854
[2] = male, beagle, dog, plasma, 2.5 mg/kg, dog No. 16924
[3] = male, beagle, dog, plasma, 2.5 mg/kg, mean (n=2)
[4] = male, beagle, dog, plasma, intramuscular, 2.5 mg/kg, dog No. 16854
[5] = male, beagle, dog, plasma, intramuscular, 2.5 mg/kg, dog No. 16854, read-out: plasma concentration during the wash-out period
[6] = male, beagle, dog, plasma, intramuscular, 2.5 mg/kg, dog No. 16924
[7] = male, beagle, dog, plasma, intramuscular, 2.5 mg/kg, dog No. 16924, read-out: plasma concentration during the wash-out period
[8] = male, beagle, dog, plasma, intramuscular, 2.5 mg/kg, mean (n=2)
[9] = male, beagle, dog, plasma, intramuscular, 2.5 mg/kg, mean (n=2), read-out: plasma concentration during the wash-out period

For Cc1cc(C=CC#N)cc(C)c1Nc1ccnc(Nc2ccc(C#N)cc2)n1 [TMC278, 4-[[4-[[4-(2-cyanoethenyl)-2,6-dimethylphenyl]amino]-2-pyrimidinyl]-amino]benzonitrile], the “plasma levels during the wash-out period (range)” value (both dogs, days 36 to 148) was 1.24 to 4.23 ng/mL, the “plasma concentration during the wash-out period” value (dog No. 16924, day 272) was <1.00 ng/mL and the half-life (male, beagle, dog, plasma, 2.5 mg/kg, dog No. 16854, half-life between 8 h and 24 h, read-out: t1/2, 8-24 h (converted)) was 8.9 h. The Cmax [1] was 39.9 ng/mL, the Tmax [1] was 8 h and the AUC(0-t) [1] was 2120 ng·h/mL. The half-life (male, beagle, dog, plasma, 2.5 mg/kg, dog No. 16854, read-out: t1/2, 24-72 h (converted)) was 75.2 h, the half-life (male, beagle, dog, plasma, 2.5 mg/kg, dog No. 16924, half-life between 1 h and 24 h, read-out: t1/2, 1-24 h (converted)) was 15.1 h and the Cmax [2] was 23.8 ng/mL. The Tmax [2] was 1 h, the AUC(0-t) [2] was 1600 ng·h/mL and the half-life (male, beagle, dog, plasma, 2.5 mg/kg, dog No. 16924, read-out: t1/2, 24-72 h (converted)) was 51 h. The Cmax [3] was 31.9 ng/mL, the Tmax [3] was 5 h and the AUC(0-t) [3] was 1860 ng·h/mL. The half-life (male, beagle, dog, plasma, 2.5 mg/kg, mean (n=2), read-out: t1/2, 24-72 h (converted)) was 63 h, the concentration at 0 h [4] was < 1 ng/mL and the concentration at 0.5 h [4] was 13.5 ng/mL. The concentration at 1 h [4] was 17 ng/mL, the concentration at 2 h [4] was 20.6 ng/mL and the concentration at 4 h [4] was 27.2 ng/mL. For the same compound, the concentration at 8 h [4] was 39.9 ng/mL, the concentration at 24 h [4] was 11.4 ng/mL and the concentration at 32 h [4] was 10.7 ng/mL. It also gave a concentration at 48 h [4] of 9.03 ng/mL, a concentration at 72 h [4] of 7.37 ng/mL and a concentration at 96 h [4] of 6.4 ng/mL. It also gave a concentration at 144 h [4] of 3.19 ng/mL, a concentration at 192 h [4] of 2.8 ng/mL and a concentration at 240 h [4] of 6.16 ng/mL. The concentration at 312 h [4] was 4.24 ng/mL, the concentration at 36 day [5] was 3.66 ng/mL and the concentration at 50 day [5] was 4.1 ng/mL. For the same compound, the concentration at 64 day [5] was 2.18 ng/mL, the concentration at 78 day [5] was 2.62 ng/mL and the concentration at 92 day [5] was 2.32 ng/mL. It also gave a concentration at 106 day [5] of 2.02 ng/mL, a concentration at 120 day [5] of 1.87 ng/mL and a concentration at 134 day [5] of 1.67 ng/mL. The concentration at 148 day [5] was 1.41 ng/mL, the concentration at 0 h [6] was < 1 ng/mL and the concentration at 0.5 h [6] was 21.3 ng/mL. It also gave a concentration at 1 h [6] of 23.8 ng/mL, a concentration at 2 h [6] of 20.9 ng/mL and a concentration at 4 h [6] of 17.1 ng/mL. For the same compound, the concentration at 8 h [6] was 15.1 ng/mL, the concentration at 24 h [6] was 7.7 ng/mL and the concentration at 32 h [6] was 6.65 ng/mL. It also gave a concentration at 48 h [6] of 6.03 ng/mL, a concentration at 72 h [6] of 3.9 ng/mL and a concentration at 96 h [6] of 3.97 ng/mL. The concentration at 144 h [6] was 3.65 ng/mL, the concentration at 192 h [6] was 3.57 ng/mL and the concentration at 240 h [6] was 4.38 ng/mL. It also gave a concentration at 312 h [6] of 5.97 ng/mL, a concentration at 36 day [7] of 3.05 ng/mL and a concentration at 50 day [7] of 2.12 ng/mL. The concentration at 64 day [7] was 2.42 ng/mL, the concentration at 78 day [7] was 1.69 ng/mL and the concentration at 92 day [7] was 2.51 ng/mL. It also gave a concentration at 106 day [7] of 1.75 ng/mL, a concentration at 120 day [7] of 4.23 ng/mL and a concentration at 134 day [7] of 1.61 ng/mL. The concentration at 148 day [7] was 1.24 ng/mL, the concentration at 272 day (male, beagle, dog, plasma, intramuscular, 2.5 mg/kg, dog No. 16924, day 272, read-out: plasma concentration during the wash-out period) was < 1 ng/mL and the concentration at 0 h [8] was < 1 ng/mL. It also gave a concentration at 0.5 h [8] of 17.4 ng/mL, a concentration at 1 h [8] of 20.4 ng/mL and a concentration at 2 h [8] of 20.8 ng/mL. The concentration at 4 h [8] was 22.2 ng/mL, the concentration at 8 h [8] was 27.5 ng/mL and the concentration at 24 h [8] was 9.55 ng/mL. The concentration at 32 h [8] was 8.68 ng/mL, the concentration at 48 h [8] was 7.53 ng/mL and the concentration at 72 h [8] was 5.64 ng/mL. The concentration at 96 h [8] was 5.19 ng/mL, the concentration at 144 h [8] was 3.42 ng/mL and the concentration at 192 h [8] was 3.19 ng/mL. The concentration at 240 h [8] was 5.27 ng/mL, the concentration at 312 h [8] was 5.11 ng/mL and the concentration at 36 day [9] was 3.36 ng/mL. For the same compound, the concentration at 50 day [9] was 3.11 ng/mL, the concentration at 64 day [9] was 2.3 ng/mL and the concentration at 78 day [9] was 2.16 ng/mL. The concentration at 92 day [9] was 2.42 ng/mL, the concentration at 106 day [9] was 1.89 ng/mL and the concentration at 120 day [9] was 3.05 ng/mL. The concentration at 134 day [9] was 1.64 ng/mL, the concentration at 148 day [9] was 1.33 ng/mL and the “t1/2, 24-72 h” value (mean (n=2)) was 63.1 h.
